Test results reported in patent US6680054B1 (priority 1996, dated 2004).
Read-outs that look alike come from different tables or passages of the source.

Key:
influenza A virus = type: cell-based
influenza strain Tokyo A = type: cell-based
[1] = test system: influenza strain X-31 (H3N2); type: cell-based
[2] = biological target: whole virus influenza neuraminidase, A/NWS/Tokyo/3/67/H1N2 (Influenza A virus, UniProt P06820); type: biochemical; details: read-out: inhibition constants (IC50), NWS/Tokyo
whole virus influenza neuraminidase, A/NWS/Tokyo/3/67/H1N2, sequence (P06820 whole entry, looked up): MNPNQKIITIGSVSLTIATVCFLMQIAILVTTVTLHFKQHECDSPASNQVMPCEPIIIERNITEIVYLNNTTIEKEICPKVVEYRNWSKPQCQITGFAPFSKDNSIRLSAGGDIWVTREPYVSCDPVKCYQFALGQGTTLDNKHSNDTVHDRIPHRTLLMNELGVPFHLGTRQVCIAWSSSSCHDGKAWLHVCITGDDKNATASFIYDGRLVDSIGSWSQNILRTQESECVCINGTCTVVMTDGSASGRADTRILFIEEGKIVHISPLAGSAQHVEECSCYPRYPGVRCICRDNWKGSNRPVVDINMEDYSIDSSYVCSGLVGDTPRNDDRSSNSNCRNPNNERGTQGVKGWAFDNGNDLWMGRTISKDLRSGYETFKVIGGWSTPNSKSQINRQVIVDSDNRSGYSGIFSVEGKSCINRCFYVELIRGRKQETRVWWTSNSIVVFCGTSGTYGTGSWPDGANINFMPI

Molecule	ID50, minimum compound concentration that inhibits cytopathic effect by 50% (influenza A virus) [µg/mL]	MTC, minimum cytotoxic drug concentration (MDCK cells)	MTC, minimum cytotoxic drug concentration (MDCK cells; dog)	also measured
7-{6′-{6″-[6″′-(6″″-(6′″″-aminocaproyl)-aminocaproyl)-aminocaproyl]-aminocaproyl}-aminohexyl-carbamoyl-oxy-4-guanidino-Neu5Ac2en [Compound 2c]	3.0	>100	–	–
Fetuin	–	–	–	Lowest Concentration (μM of GG167 units) that Inhibited Agglutination, TOKYO (influenza strain Tokyo A): 5.86 µM; Lowest Concentration (μM of GG167 units) that Inhibited Agglutination, X-31 [1]: <0.48 µM
CC(=O)NC1C(NC(=N)N)C=C(C(=O)O)OC1[C@H](O)[C@H](O)CO (stereo partly shown) [GG167, 4-guanidino-Neu5Ac2en]	<0.32	–	>100	–
NC(=O)c1ncn([C@@H]2O[C@H](CO)[C@@H](O)[C@H]2O)n1 [Ribavirin]	1.0 to 2.6	–	>32	–
CC(=O)N[C@H]1[C@H]([C@H](O)[C@H](O)CO)OC(C(=O)O)=C[C@@H]1O [DANA, 2-deoxy-2,3-didehydro-N-acetylneuraminic acid]	–	–	–	IC50 [2]: 6 µM
Polyacrylamide	–	>100	–	–
